Results: ChEMBL document CHEMBL1127812, “Molecular modeling studies on ligand binding to sialidase from influenza virus and the mechanism of catalysis” (J Med Chem, 1994)
pKi: −log10 of the molar value.

Target: Neuraminidase (Influenza A virus (A/Puerto Rico/8/1934(H1N1)), UniProt P03468)
Sequence (P03468 whole entry): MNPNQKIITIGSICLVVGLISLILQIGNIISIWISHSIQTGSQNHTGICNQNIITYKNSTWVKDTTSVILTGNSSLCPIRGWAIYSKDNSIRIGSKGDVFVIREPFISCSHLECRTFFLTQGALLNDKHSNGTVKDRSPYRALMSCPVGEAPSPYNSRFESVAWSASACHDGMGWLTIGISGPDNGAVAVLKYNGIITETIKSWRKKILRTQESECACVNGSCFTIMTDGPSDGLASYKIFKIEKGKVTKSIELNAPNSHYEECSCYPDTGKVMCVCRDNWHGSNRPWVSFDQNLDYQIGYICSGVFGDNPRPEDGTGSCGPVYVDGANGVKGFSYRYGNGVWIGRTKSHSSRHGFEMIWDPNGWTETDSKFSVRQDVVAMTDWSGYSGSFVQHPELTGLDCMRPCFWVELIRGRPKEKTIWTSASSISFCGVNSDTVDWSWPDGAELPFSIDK
Description: inhibition of Influenza A Sialidase

`CC(=O)NC1C(N)C=C(C(=O)O)OC1[C@H](O)[C@H](O)CO` (stereo partly specified) was tested, and the pKi was 7.40.
